From patent US5767296A, “Deacetoxytaxol derivatives” (Daiichi Pharmaceutical Co., Ltd., priority 1994, dated 1998)
Converted amounts (≈) assume the structure as drawn. Like-named read-outs stand apart in the source and are kept apart here.

What was measured:
P388 = experiment: Antitumor effect by MTT assay, P388 tumor cells; assay type: cell-based; conditions: Mus musculus, read-out: GI50 Value
Description: (§1) Each of three tumor cells, P388, PC-6 and PC-12, were inoculated in a 96-well microplate in amounts of 5.0×10^2 cells/150 μl/well of P388, 5.0×10^3 cells/150 μl/well of PC-6, and 1.0×10^3 cells/150 μl/well of PC-12, and after 2 hours in the case of P388 or after 24 hours in the cases of PC-6 and PC-12, test compound was added to the well in an amount of 50 μl/well in each case. Cells were cultivated for 3 days. Then, a 5 mg/ml solution of MTT [3-(4,5-dimethylthiazol-2-yl)-2,5-diphenyl-2H-tetrazolium bromide] was added to the well in an amount of 20 μl/well. After 4 hours, the culture liquid was removed, dimethylsulfoxide was added to the well in an amount of 150 μl/well, and the absorbance at 540 nm was measured. The antitumor effect was determined in terms of a concentration of the test compound required for suppressing the cell growth in the medicated group to 50% of the cell growth in the control group, i.e., a GI50 value (ng/ml).

PC-6 = experiment: Antitumor effect by MTT assay, PC-6 tumor cells; assay type: cell-based; conditions: Homo sapiens, read-out: GI50 Value
Description: as §1

PC-12 = experiment: Antitumor effect by MTT assay, PC-12 tumor cells; assay type: cell-based; conditions: Rattus norvegicus, read-out: GI50 Value
Description: as §1

tumor = conditions: background art; cited from earlier work
microtubules = conditions: background art; cited from earlier work
[1] = tested on: cancers of digestive tracts, in particular, the cancer of large intestine; conditions: background art; cited from earlier work

Structure (SMILES)	GI50 (P388; P388, 72 h) [ng/mL]	GI50 (PC-6; PC-6, 72 h) [ng/mL]	GI50 (PC-12; PC-12, 72 h) [ng/mL]	GI50 (P388; 72 h, P388, 3 days, MTT) [ng/mL]	GI50 (PC-6; 72 h, PC-6, 3 days, MTT) [ng/mL]	GI50 (PC-12; 72 h, PC-12, 3 days, MTT) [ng/mL]	antitumor activity compared with taxol (tumor)	inhibitory activity on the disassembly of microtubules in cytokinesis (microtubules)	effectiveness on cancers of digestive tracts [1]
CCCC(=O)O[C@@]12CO[C@@H]1C[C@H](O)[C@@]1(C)C(=O)C(CCN3CCOCC3)C3=C(C)[C@@H](OC(=O)[C@H](O)[C@@H](NC(=O)OC(C)(C)C)c4ccccc4)C[C@@](O)([C@@H](OC(=O)c4ccccc4)[C@H]21)C3(C)C (stereo partly drawn) [Example 24, 4-O-Butanoyl-13-O-[(2R,3S)-3-(tert-butoxycarbonylamino)-2-hydroxy-3-phenylpropionyl]-10-deacetoxy-4-deacetyl-10-(2-morpholinoethyl)baccatin III]	0.845 (≈ 0.906 nM)	1.67 (≈ 1.79 nM)	4.99 (≈ 5.35 nM)	–	–	–	–	–	–
COC(=O)CCC1C(=O)[C@@]2(C)[C@H]([C@H](OC(=O)c3ccccc3)[C@]3(O)C[C@H](OC(=O)[C@H](O)[C@@H](NC(=O)OC(C)(C)C)c4ccccc4)C(C)=C1C3(C)C)[C@]1(OC(C)=O)CO[C@@H]1C[C@@H]2O (stereo partly drawn) [Example 7, 13-O-[(2R,3S)-3-(tert-Butoxycarbonylamino)-2-hydroxy-3-phenylpropionyl]-10-deacetoxy-10-(2-methoxycarbonylethyl)baccatin III]	3.3 (≈ 3.76 nM)	0.771 (≈ 0.878 nM)	24.4 (≈ 27.8 nM)	–	–	–	–	–	–
CCOC(=O)O[C@@]12CO[C@@H]1C[C@H](O)[C@@]1(C)C(=O)C(CCN3CCOCC3)C3=C(C)[C@@H](OC(=O)[C@H](O)[C@@H](NC(=O)OC(C)(C)C)c4ccccc4)C[C@@](O)([C@@H](OC(=O)c4ccccc4)[C@H]21)C3(C)C (stereo partly drawn) [Example 35, 13-O-[(2R,3S)-3-(tert-Butoxycarbonylamino)-2-hydroxy-3-phenylpropionyl]-10-deacetoxy-4-deacetyl4-O-ethoxycarbonyl-10-(2-morpholinoethyl)baccatin III]	0.729 (≈ 0.78 nM)	1.83 (≈ 1.96 nM)	2.95 (≈ 3.15 nM)	–	–	–	–	–	–
CCC(=O)O[C@@]12CO[C@@H]1C[C@H](O)[C@@]1(C)C(=O)C(CCN3CCOCC3)C3=C(C)[C@@H](OC(=O)[C@H](O)[C@@H](NC(=O)OC(C)(C)C)c4ccco4)C[C@@](O)([C@@H](OC(=O)c4ccccc4)[C@H]21)C3(C)C (stereo partly drawn) [Example 31, 13-O-[(2R,3S)-3-(tert-Butoxycarbonylamino)-3-(2-furyl)-2-hydroxypropionyl]-10-deacetoxy-4-deacetyl-10-(2-morpholinoethyl)-4-O-propionylbaccatin III]	0.136 (≈ 0.15 nM)	1.03 (≈ 1.13 nM)	1.26 (≈ 1.39 nM)	–	–	–	–	–	–
CC(=O)O[C@@]12CO[C@@H]1C[C@H](O)[C@@]1(C)C(=O)[C@H](O)C3=C(C)[C@@H](OC(=O)[C@H](O)[C@@H](NC(=O)OC(C)(C)C)c4ccccc4)C[C@@](O)([C@@H](OC(=O)c4ccccc4)[C@H]21)C3(C)C [Taxotel, reference compound]	–	–	–	5.3 (≈ 6.56 nM)	1.72 (≈ 2.13 nM)	49.7 (≈ 61.5 nM)	equal to or higher than that of taxol	–	–
CC(=O)O[C@@]12CO[C@@H]1C[C@H](O)[C@@]1(C)C(=O)C(CC=O)C3=C(C)[C@@H](OC(=O)[C@H](O)[C@@H](NC(=O)OC(C)(C)C)c4ccccc4)C[C@@](O)([C@@H](OC(=O)c4ccccc4)[C@H]21)C3(C)C (stereo partly drawn) [Example 18, 13-O-[(2R,3S)-3-(tert-Butoxycarbonylamino)-2-hydroxy-3-phenylpropionyl]-10-deacetoxy-10-(formylmethyl)baccatin III]	1.19 (≈ 1.43 nM)	0.983 (≈ 1.18 nM)	12.9 (≈ 15.5 nM)	–	–	–	–	–	–
C=CCC1C(=O)[C@@]2(C)[C@H]([C@H](OC(=O)c3ccccc3)[C@]3(O)C[C@H](OC(=O)[C@H](O)[C@@H](NC(=O)OC(C)(C)C)c4ccco4)C(C)=C1C3(C)C)[C@]1(OC(=O)CCC)CO[C@@H]1C[C@@H]2O (stereo partly drawn) [Example 25, 10-Allyl-4-O-Butanoyl-13-O-[3-(tert-butoxycarbonylamino)-3-(2-furyl)-2-hydroxypropionyl]-10-deacetoxy-4-deacetylbaccatin III]	–	–	–	0.226 (≈ 0.266 nM)	0.771 (≈ 0.907 nM)	1.34 (≈ 1.58 nM)	–	–	–
CC1=C2C(CCN3CCOCC3)C(=O)[C@@]3(C)[C@H]([C@H](OC(=O)c4ccccc4)[C@](O)(C[C@@H]1OC(=O)[C@H](O)[C@@H](NC(=O)OC(C)(C)C)c1ccccc1)C2(C)C)[C@]1(OC(=O)C2CC2)CO[C@@H]1C[C@@H]3O (stereo partly drawn) [Example 36, 13-O-[(2R,3S)-3-(tert-butoxycarbonylamino)-2-hydroxy-3-phenylpropionyl]-4-O-cyclopropylcarbonyl-10-deacetoxy-10-(2-morpholinoethyl)baccatin III]	0.505 (≈ 0.542 nM)	1.64 (≈ 1.76 nM)	1.81 (≈ 1.94 nM)	–	–	–	–	–	–
C=CCC1C(=O)[C@@]2(C)[C@H]([C@H](OC(=O)c3ccccc3)[C@]3(O)C[C@H](OC(=O)[C@H](O)[C@@H](NC(=O)OC(C)(C)C)c4ccccc4)C(C)=C1C3(C)C)[C@]1(OC(C)=O)CO[C@@H]1C[C@@H]2O (stereo partly drawn) [Example 16, 10-Allyl-13-O-[(2R,3S)-3-(tert-butoxycarbonylamino)-2-hydroxy-3-phenylpropionyl]-10-deacetoxybaccatin III]	1.16 (≈ 1.39 nM)	0.677 (≈ 0.814 nM)	7.87 (≈ 9.46 nM)	–	–	–	–	–	–
CCC(=O)O[C@@]12CO[C@@H]1C[C@H](O)[C@@]1(C)C(=O)C(CCN3CCOCC3)C3=C(C)[C@@H](OC(=O)[C@H](O)[C@@H](NC(=O)OC(C)(C)C)c4ccccc4)C[C@@](O)([C@@H](OC(=O)c4ccccc4)[C@H]21)C3(C)C (stereo partly drawn) [Example 26, 13-O-[(2R,3S)-3-(tert-butoxycarbonylamino)-2-hydroxy-3-phenylpropionyl]-10-deacetoxy-4-deacetyl-10-(2-morpholinoethyl)-4-O-propionylbaccatin III]	1.07 (≈ 1.16 nM)	1.22 (≈ 1.33 nM)	5.64 (≈ 6.14 nM)	–	–	–	–	–	–
CC(=O)O[C@@]12CO[C@@H]1C[C@H](O)[C@@]1(C)C(=O)C(CCN3CCOCC3)C3=C(C)[C@@H](OC(=O)[C@H](O)[C@@H](NC(=O)OC(C)(C)C)c4ccccc4)C[C@@](O)([C@@H](OC(=O)c4ccccc4)[C@H]21)C3(C)C (stereo partly drawn) [Example 20, 13-O-[(2R,3S)-3-(tert-Butoxycarbonylamino)-2-hydroxy-3-phenylpropionyl]-10-deacetoxy-10-(2-morpholinoethyl)baccatin III]	–	–	–	3.07 (≈ 3.39 nM)	0.603 (≈ 0.666 nM)	13.5 (≈ 14.9 nM)	–	–	–
CC(=O)O[C@H]1C(=O)[C@@]2(C)[C@H]([C@H](OC(=O)c3ccccc3)[C@]3(O)C[C@H](OC(=O)[C@H](O)[C@@H](NC(=O)c4ccccc4)c4ccccc4)C(C)=C1C3(C)C)[C@]1(OC(C)=O)CO[C@@H]1C[C@@H]2O [Taxol]	30.4 (≈ 35.6 nM)	3.51 (≈ 4.11 nM)	136 (≈ 159 nM)	–	–	–	–	inhibitory activity on the disassembly of microtubules in cytokinesis	weak
CCC(=O)O[C@@]12CO[C@@H]1C[C@H](O)[C@@]1(C)C(=O)C(CCN3CCOCC3)C3=C(C)[C@@H](OC(=O)C(O)C(C=C(C)C)NC(=O)OC(C)(C)C)C[C@@](O)([C@@H](OC(=O)c4ccccc4)[C@H]21)C3(C)C (single isomer, unassigned) [Example 33 Isomer B, 13-O-[3-(tert-Butoxycarbonylamino)-2-hydroxy-5-methyl-4-hexenoyl]-10-deacetoxy-4-deacetyl-10-(2-morpholinoethyl)-4-O-propionylbaccatin III]	0.69 (≈ 0.769 nM)	4.13 (≈ 4.6 nM)	4.16 (≈ 4.64 nM)	–	–	–	–	–	–
